According to patent US7029865B2, “DNA molecules encoding the melanocortin 4 receptor protein from rhesus monkey” (Merck & Co., Inc., priority 1998, dated 2006):

System: rhMC-4R
Assay: Competitive binding assay, [125I]-NDP alpha MSH, membranes from rhesus MC-4R transfected cells
Conditions: read-out: IC50 rhMC-4R
Protocol: Reactions were incubated for 1 hour without shaking and then filtered through 96-well filter plates (Packard corp.). Filters were washed three times with TNE buffer (50 mM Tris pH 7.4, 5 mM EDTA, 150 mM NaCl), dried and counted using Microscint-20 in a Topcount scintillation counter (Packard).
Membranes prepared from rhesus MC-4R transfected cells were evaluated alongside membranes prepared from human MC-4R, MC-4R, and MC-5R expressing cells.

rhMC-4R, sequence (as listed by the source): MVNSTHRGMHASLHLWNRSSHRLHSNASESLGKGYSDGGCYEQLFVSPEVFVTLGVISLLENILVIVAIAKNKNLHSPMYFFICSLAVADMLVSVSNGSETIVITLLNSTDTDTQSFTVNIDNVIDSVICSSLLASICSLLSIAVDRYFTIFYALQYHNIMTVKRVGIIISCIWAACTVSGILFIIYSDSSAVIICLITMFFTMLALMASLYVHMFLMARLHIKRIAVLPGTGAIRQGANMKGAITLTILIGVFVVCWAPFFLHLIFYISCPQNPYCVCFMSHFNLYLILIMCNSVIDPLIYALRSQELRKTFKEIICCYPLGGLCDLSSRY

NDP-alpha-MSH
IC50: 1.3 nM
